# Assay results: paper PMC5307958 (Scientific Reports, 2017)
# Bridges are numbered along the chain shown (N, C = ends). Where no end group is shown, it is not given here.
# T1: human BKα channel (ZERO isoform) (human) (UniProt O95259)
# T1 sequence: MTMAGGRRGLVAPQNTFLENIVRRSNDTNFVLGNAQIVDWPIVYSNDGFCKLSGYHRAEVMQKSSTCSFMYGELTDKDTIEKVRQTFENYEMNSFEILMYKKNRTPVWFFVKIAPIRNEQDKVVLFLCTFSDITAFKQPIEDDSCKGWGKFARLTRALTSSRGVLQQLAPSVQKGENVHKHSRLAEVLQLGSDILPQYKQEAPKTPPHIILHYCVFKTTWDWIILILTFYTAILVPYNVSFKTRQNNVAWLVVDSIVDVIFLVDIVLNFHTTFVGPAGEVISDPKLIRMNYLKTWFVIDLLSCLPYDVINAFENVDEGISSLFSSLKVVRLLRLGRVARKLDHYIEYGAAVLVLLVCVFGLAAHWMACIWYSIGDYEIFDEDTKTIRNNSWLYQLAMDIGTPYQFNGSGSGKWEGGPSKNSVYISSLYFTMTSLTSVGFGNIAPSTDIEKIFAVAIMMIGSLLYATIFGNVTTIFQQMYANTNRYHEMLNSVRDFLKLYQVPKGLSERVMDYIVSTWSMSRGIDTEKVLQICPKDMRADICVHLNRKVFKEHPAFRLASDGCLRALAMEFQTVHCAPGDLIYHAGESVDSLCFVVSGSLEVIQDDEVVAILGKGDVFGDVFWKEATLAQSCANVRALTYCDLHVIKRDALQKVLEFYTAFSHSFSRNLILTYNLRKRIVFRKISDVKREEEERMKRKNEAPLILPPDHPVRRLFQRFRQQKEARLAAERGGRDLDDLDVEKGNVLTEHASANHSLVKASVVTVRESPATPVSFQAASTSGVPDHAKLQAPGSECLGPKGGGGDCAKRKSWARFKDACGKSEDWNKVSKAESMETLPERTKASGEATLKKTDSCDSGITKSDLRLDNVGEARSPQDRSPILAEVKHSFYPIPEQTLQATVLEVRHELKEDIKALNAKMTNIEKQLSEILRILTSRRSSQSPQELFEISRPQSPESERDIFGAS
# Assays:
# [1] = molecular target: T2, human BKα channel (ZERO isoform) expressed in HEK293 cells (Homo sapiens, UniProt Q12791); assay: Patch-clamp recording, inside-out patches, extracellular application; format: cell-based; conditions: for effect on Po (post vs. pre peptide): 500 nM linear (reduced) LS3, extracellular, any voltage, compared with 500 nM cyclic LS3
# T2 construct: expressed in transfected cells; host or cells: HEK293 (ATCC), transient transfection with Lipofectamine 2000; EGFP cotransfected as a separate marker
# Protocol: HEK293 cells (ATCC, Manassas, VA) were grown according to standard procedures. Cells were cultured at 37 °C in a 5% CO2 atmosphere in Dulbecco’s modified Eagle’s medium with L-glutamine, sodium pyruvate and 10% fetal bovine serum (Invitrogen). Cell lines were split with trypsin/EDTA in Hanks’ balanced salt solution (Invitrogen) up to 25–30 cycles. For phage display, stable lines stably expressed rSK2 or hBKα ZERO isoform. Cells were transfected (Lipofectamine 2000, Invitrogen) with hGlyRα1 and used 48 hours later. For electrophysiological recordings, cells were transfected with hBKα ZERO isoform. Enhanced green fluorescent protein (EGFP) was cotransfected as a marker. Electrophysiological recordings were made 16–72 h after transfection. Although the profile of BK channel composition varies from tissue to tissue, the ZERO BK channel splice variant is widely expressed, particularly in the nervous system, serving as a representative form for studying the modulation of BK channel gating.
# Voltage-clamp recordings were performed at room temperature (22–24 °C) using an inside-out configuration on patches pulled from HEK293 cells. The extracellular solution contained the following (in mM): 2 KCl, 136 KOH, 20 HEPES, 2 MgCl2, adjusted to pH 7.2 with MeSO3H. In order to apply peptide to the extracellular surface, patch electrodes (7–20 MΩ in resistance) were tip-filled with normal extracellular solution and backfilled with extracellular solution containing LS3. Enough normal extracellular solution was included to provide at least five minutes of peptide-free recording (determined by plotting Po vs. time). The intracellular solution (in the bath) contained the following (in mM): 6 KCl, 132 KOH, 20 HEPES, adjusted to pH 7.2 with MeSO3H. To achieve 750 nM free Ca^2+, […] and 5 mM EGTA were included, a ratio verified by measurement with a Ca^2+-sensitive electrode. Voltage-clamp recordings made with an Axopatch 200 A amplifier and custom macros in IgorPro. Analysis was performed with QUB (http://www.qub.buffalo.edu), including Po, mean open time and three component exponential fits to closed dwell times. Group means±SEM for post-peptide measures were plotted relative to pre-peptide values and compared with pre values via planned paired t-tests.
# [2] = cited from earlier work
# Text: A pharmacological agent must cross the BBB in order to act at CNS-located targets. […] Many ion channel-targeted peptides are regarded as having low BBB permeability due to the large difference between the lethal dose when administered peripherally versus centrally. For example, the LD50 for peripherally administered dendrotoxin is in the tens of mg/kg, while it is ten thousand fold l ...
# [3] = Blood-brain barrier crossing inferred from functional activity in the IC; format: in vivo, mouse; conditions: inferred from suppression of sound evoked activity after topical (dura) or systemic (0.3 mg/kg I.P.) administration
# Protocol: (§1) The temperature was maintained near 25 °C.
# [4] = tested on: mouse inferior colliculus (auditory midbrain); assay: Sound evoked activity within excitatory receptive field (eRF), topical application on dura
# [5] = tested on: auditory nerve and generators caudal to the IC; assay: Auditory brainstem responses (ABR); format: in vivo, mouse
# Protocol: as §1
# ABR recordings were acquired after the mice were anesthetized with ketamine (120 mg/kg) and xylazine (10 mg/kg) I.P., and respiration was monitored throughout to determine when additional supplemental doses were needed. Body temperature was kept constant at 37 °C using a feedback controlled heating pad (Physitemp TCAT2-LV Controller, Clifton, NJ). Stimuli and recordings were generated digitally and controlled using a TDT RZ6 Multi-I/O Processor and their BioSig/SigGen software. Acoustic signals were played through a multi-field (MF1) magnetic speaker (TDT, Alachua, FL) with a total harmonic distortion < = 1% from 1 kHz to 50 kHz, centered 0° azimuth in regards to the animal at a distance of 10 cm from the ear pinna. Tone bursts were presented at frequencies of 6, 12, 16, 20, 24, and 36 kHz (3 ms duration, 1 ms rise/fall time, alternating polarity) at a rate of 29 per second, attenuated in 5 dB steps from 80 dB SPL to 15 dB below threshold or 5 dB SPL, whichever was lower. Threshold was determined by visual inspection as the lowest intensity level which produced a defined wave in both replicates. All signals were calibrated using a Larsen Davis preamplifier, model 2221, with a 1/4″ microphone and a Larson Davis CAL200 Precision Acoustic Calibrator (PCB Piezotronics, Inc., Depew, NY). ABR recordings were acquired using a TDT RA4LI low-impedance digital headstage and RA4PA Medusa preamp with the active (noninverting) electrode inserted at the vertex, the reference (inverting) electrode below the left ear, and the ground electrode below the right ear. The responses were amplified (20×), filtered (300 Hz–3 kHz), and averaged using BioSig software and the System III hardware (TDT) data-acquisition system. A total of 256 tone burst signal and 150 GIN signal recordings were replicated for each acquisition, and muscle artifacts exceeding 7 μV were rejected from the averaged response. All recordings took place in a soundproof booth lined with echo-attenuating acoustic foam. ABR waveforms were analyzed using a custom MatLab program that automatically determined peak latencies and amplitudes in combination with secondary verification by an experimenter blind to the treatment group.
# BK channel = conditions: small molecule BK channel blocker; cited from earlier work
# Text: CNS pharmacological applications favor pharmaceutical agents with high affinity, specificity, amenability to large-scale synthesis and BBB permeability. Peptide drugs have the potential for high affinity and specific binding to ion channel targets, as shown by voltage-gated potassium channel (Kv) peptide toxins. In addition to natural products, phage display screens have successfully selected peptides with high target affinity. For example, a phage display screen of scorpion toxin derivatives selected a novel peptide that blocks the Kv3.1 channel in the nanomolar range[41]. Here, a phage displ ...
# [6] = molecular target: T1, human BKα channel (ZERO isoform) (human)
# [7] = molecular target: comprehensive panel of mammalian CNS-based proteins; assay: radioligand binding; competition binding assays (NIMH PDSP): 10 microM LS3 against known radioligands for 33 targets; percent inhibition measured 4 times for each receptor; less than 50% inhibition considered insignificant
# T2 sequence (Q12791 1-1178 isoform Q12791-5): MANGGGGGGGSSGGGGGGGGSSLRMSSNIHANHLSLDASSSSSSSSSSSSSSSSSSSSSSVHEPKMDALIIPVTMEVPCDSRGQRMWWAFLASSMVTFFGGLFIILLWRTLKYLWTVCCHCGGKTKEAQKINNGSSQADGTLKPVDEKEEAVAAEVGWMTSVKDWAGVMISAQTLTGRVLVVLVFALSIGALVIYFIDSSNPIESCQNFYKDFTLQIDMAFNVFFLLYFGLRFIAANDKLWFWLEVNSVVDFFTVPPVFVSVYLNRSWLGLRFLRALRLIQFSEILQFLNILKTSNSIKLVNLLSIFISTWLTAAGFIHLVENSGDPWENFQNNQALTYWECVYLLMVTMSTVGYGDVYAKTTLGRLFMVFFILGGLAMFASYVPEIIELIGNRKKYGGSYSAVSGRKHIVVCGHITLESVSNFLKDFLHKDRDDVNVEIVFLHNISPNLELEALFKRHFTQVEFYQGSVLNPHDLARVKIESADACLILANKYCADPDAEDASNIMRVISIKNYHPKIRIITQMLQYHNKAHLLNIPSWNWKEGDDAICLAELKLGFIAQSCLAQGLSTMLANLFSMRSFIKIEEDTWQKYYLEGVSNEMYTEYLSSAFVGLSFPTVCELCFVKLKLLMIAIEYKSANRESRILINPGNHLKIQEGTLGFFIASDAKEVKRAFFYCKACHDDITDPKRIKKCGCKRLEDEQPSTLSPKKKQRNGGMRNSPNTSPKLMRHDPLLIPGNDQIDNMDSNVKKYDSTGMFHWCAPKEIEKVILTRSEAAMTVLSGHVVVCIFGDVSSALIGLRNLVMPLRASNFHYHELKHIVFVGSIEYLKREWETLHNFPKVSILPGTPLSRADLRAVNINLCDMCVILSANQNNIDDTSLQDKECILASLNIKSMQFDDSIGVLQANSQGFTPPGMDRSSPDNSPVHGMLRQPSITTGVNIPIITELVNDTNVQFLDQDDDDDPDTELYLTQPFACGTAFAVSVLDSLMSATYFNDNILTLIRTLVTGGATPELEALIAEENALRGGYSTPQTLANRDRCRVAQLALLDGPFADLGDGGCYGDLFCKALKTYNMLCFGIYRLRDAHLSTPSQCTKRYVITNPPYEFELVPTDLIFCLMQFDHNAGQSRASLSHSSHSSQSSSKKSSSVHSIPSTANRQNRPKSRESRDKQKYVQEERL
molecule,measurement,setting,value
linearized version of LS3: linearized version of LS3 without the disulfide bridge (CRRGLVQVC),effect on Po (post vs. pre peptide),[1],no significant reduction in Po at any voltage
same,effect on Po (post vs. pre peptide),[1]; listed as linear peptide,lack of effect
same,effect on Po (post vs. pre peptide),[1]; listed as reduced form of LS3,did not alter Po
same,potency relative to cyclic LS3,"[1]; linearized version without the disulfide bridge, Po",less potent
"apamin: a small Kv toxin at 18 aa (CNCKAPETALCARRCQQH-NH2; disulfide 1-11, 3-15; ends not checked; UniProt P01500 28-45, looked up)",CNS availability,[2]; in contrast to many ion channel-targeted peptides,higher CNS availability
same,effect on learning and memory-related behaviors,[2]; intraperitoneal injection at a similar concentration used in this paper,alter learning and memory-related behaviors
dendrotoxin,"LD50, intraventricular injection, relative to peripheral",[2],ten thousand fold lower
same,"LD50, peripherally administered",[2],tens
"CC(C)(O)[C@H]1O[C@H]2CC[C@@]3(C)[C@@](O)(CC[C@H]4Cc5c([nH]c6ccccc56)[C@@]43C)C2=CC1=O [paxilline, reference compound]",ability to cross the BBB,[3],can cross the BBB
same,time course of suppression of sound evoked activity,"[4]; 1 μL of 10 μM paxilline, 51 units, F(12,430) = 4.146 P < 0.0001",suppression of sound evoked activity increasing out to 6 hours
same,reduction in sound driven activity,"[4]; 1 μL of 10 μM paxilline, 5 hours post-application, N = 5 mice",87%
same,reduction of maximum spike counts,"[4]; 1 μL of 10 μM paxilline, within 30 minutes, 51 units",50%
same,maximum spike counts,"[4]; 1 μL of 10 μM paxilline, within 30 minutes, baseline 375, 51 units",180 spikes
same,reduction of sound evoked driven activity within the RF,"[4]; 1 μL of 10 μM stock, from baseline pre-peptide, Fig. 5A,B representative eRFs",approximately 50%
same,mean ABR thresholds,"[5]; 4 hours post I.P. injection vs. baseline, tone bursts",No significant effect
same,ABR peak 1 (P1) amplitude by intensity functions,"[5]; systemic (I.P.) injection, 4 hrs vs. baseline, auditory nerve",Neither BK channel modulator reduced auditory nerve (P1)
same,ABR peak 4 (P4) amplitude by intensity functions,"[5]; systemic (I.P.) injection, 4 hrs vs. baseline, generators caudal to the IC (brainstem)",Neither BK channel modulator reduced auditory nerve (P1) or brainstem (P4) amplitudes
same,IC50 (BK channel block),BK channel,low nanomolar
CRRGLVQVC (disulfide 1-9) [LS3 (… with a 1–9 disulfide bridge)],"post-peptide Po relative to pre-peptide Po at 40 mV, 500 nM LS3",[6],0.54
same,Ki,[7],> 10 µM
same,percent inhibition of radioligand binding at 10 microM LS3,[7],< 50%
